Data as given in patent publication US8716324B2, “Tricyclic indeno-pyrrole derivatives as serotonin receptor modulators” (Athersys, Inc., priority 2004, dated 2014).

target: human 5HT2c receptor (VSV Isoform) (Homo sapiens, UniProt P28335, I156V/I160V/N158S); assay: cell-based; conditions: 5-HT2c EC50 (hVSV, μM)
Sequence (P28335 33-458 I156V/N158S/I160V limits assumed): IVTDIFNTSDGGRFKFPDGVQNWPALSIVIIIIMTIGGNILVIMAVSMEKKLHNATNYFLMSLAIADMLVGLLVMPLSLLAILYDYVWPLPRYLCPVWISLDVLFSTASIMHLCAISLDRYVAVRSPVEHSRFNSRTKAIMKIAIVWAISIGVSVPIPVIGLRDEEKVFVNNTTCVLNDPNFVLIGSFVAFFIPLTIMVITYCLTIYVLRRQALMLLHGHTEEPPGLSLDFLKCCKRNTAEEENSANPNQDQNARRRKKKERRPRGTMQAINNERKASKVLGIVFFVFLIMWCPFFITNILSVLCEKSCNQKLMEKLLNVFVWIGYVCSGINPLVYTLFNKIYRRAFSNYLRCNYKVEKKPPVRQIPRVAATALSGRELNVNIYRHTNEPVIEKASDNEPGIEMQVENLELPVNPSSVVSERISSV

Q: With `Cc1cc2c(cc1Cl)C1CNCC1C2C` (single isomer, unassigned) [23, Enantiomer 2] as the molecule, how does the EC50 read?
A: < 0.1 µM

Q: How did the EC50 turn out when `CC1c2cc(Cl)c(O)cc2C2CNCC12` (single isomer, unassigned) [4, Enantiomer 2] was run?
A: < 0.1 µM

Q: Which EC50 does the source give for `CC1c2ccc(Cl)cc2C2CNCC12` (stereo not shown) [Example 20, 5-Chloro-8-methyl-1,2,3,3a,8,8a-hexahydroindeno[1,2-c]pyrrole] here?
A: < 10 µM

Q: `COc1cc2c(cc1-c1cccs1)C(C)C1CNCC21` (single isomer, unassigned) [32, Enantiomer 2] was tested. Which EC50 did it give?
A: > 10 µM

Q: Which EC50 does the source give for `CC1c2cc(Cl)c(OCc3ccc(F)cc3)cc2C2CNCC12` (single isomer, unassigned) [6, Enantiomer 2] here?
A: < 1 µM

Q: For `CC1c2ccc(OCc3cccc(F)c3)cc2C2CNCC12` (single isomer, unassigned) [45, Enantiomer 2], which EC50 is on record?
A: < 10 µM

Q: How did the EC50 turn out when `Cc1cc2c(cc1Cl)C(C)C1CNCC21` (single isomer, unassigned) [21, Enantiomer 2] was run?
A: < 0.1 µM

Q: For `Cc1ccc2c(c1)C(C)C1CNCC21` (single isomer, unassigned) [15, Enantiomer 1], which EC50 is on record?
A: < 0.1 µM

Q: For `Cc1cc2c(cc1Br)C1CNCC1C2C` (stereo not shown) [Example 24, 5-Bromo-6-methyl-8-methyl-1,2,3,3a,8,8a-hexahydroindeno[1,2-c]pyrrole], which EC50 is on record?
A: < 1 µM

Q: How did the EC50 turn out when `Cc1ccc2c(c1)C(C)C1CNCC21` (stereo not shown) [Example 15, 6-Methyl-8-methyl-1,2,3,3a,8,8a-hexahydroindeno[1,2-c]pyrrole] was run?
A: < 1 µM

Q: For `COc1c(Cl)cc2c(c1Cl)C1CNCC1C2C` (single isomer, unassigned) [38, Enantiomer 1], which EC50 is on record?
A: < 1 µM

Q: For `CC1c2cc(Cl)c(O)cc2C2CNCC12` (stereo not shown) [Example 4, 5-Hydroxy-6-chloro-8-methyl-1,2,3,3a,8,8a-hexahydroindeno[1,2-c]pyrrole], which EC50 is on record?
A: < 1 µM

Q: Which EC50 does the source give for `Cc1ccc2c(c1)C(C)C1CNCC21` (single isomer, unassigned) [15, Enantiomer 2] here?
A: < 1 µM

Q: How did the EC50 turn out when `COc1cc2c(cc1Cl)CC1CNCC21` (single isomer, unassigned) [37, Enantiomer 1] was run?
A: < 0.1 µM

Q: How did the EC50 turn out when `Fc1cccc(F)c1-c1ccc2c(c1)CC1CNCC21` (stereo not shown) [Example 12, 6-(2,6-Difluorophenyl)-1,2,3,3a,8,8a-hexahydroindeno[1,2-c]pyrrole] was run?
A: > 10 µM

Q: Which EC50 does the source give for `COc1cc2c(cc1Br)C(C)C1CNCC21` (single isomer, unassigned) [30, Enantiomer 2] here?
A: < 0.01 µM

Q: With `CC1c2ccc(O)cc2C2CNCC12` (single isomer, unassigned) [2, Enantiomer 2] as the molecule, how does the EC50 read?
A: < 0.1 µM

Q: `COc1cc2c(cc1Cl)C(=O)C1CNCC21` (stereo not shown) [Example 53, 5-Methoxy-6-chloro-2,3,3a,8a-tetrahydro-1H-2-aza-cyclopenta[a]inden-8-one] was tested. Which EC50 did it give?
A: < 1 µM

Q: Which EC50 does the source give for `CC1c2cc(Cl)c(OCc3ccccc3F)cc2C2CNCC12` (stereo not shown) [Example 8, 5-(2-Fluorobenzyloxy)-6-chloro-8-methyl-1,2,3,3a,8,8a-hexahydroindeno[1,2-c]pyrrole] here?
A: < 10 µM

Q: How did the EC50 turn out when `COc1ccc2c(c1Cl)C1CNCC1C2O` (stereo not shown) [Example 54, 4-Chloro-5-methoxy-2,3,3a,8a-tetrahydro-1H-2-aza-cyclopenta[a]inden-8-ol] was run?
A: < 1 µM

Q: How did the EC50 turn out when `COc1cc2c(cc1Cl)C(C)C1CNCC21` (single isomer, unassigned) [3, Enantiomer 2] was run?
A: < 0.1 µM

Q: For `c1ccc2c(c1)CC1CNCC21` (stereo not shown) [Example 10, 1,2,3,3a,8,8a-Hexahydroindeno[1,2-c]pyrrole], which EC50 is on record?
A: < 10 µM

Q: Which EC50 does the source give for `CC1c2ccc(OC(F)(F)F)cc2C2CNCC12` (stereo not shown) [Example 40, 5-Trifluoromethoxy-8-methyl-1,2,3,3a,8,8a-hexahydroindeno[1,2-c]pyrrole] here?
A: > 10 µM

Q: For `COc1ccc2c(c1OC)C1CNCC1C2C` (single isomer, unassigned) [34, Enantiomer 1], which EC50 is on record?
A: < 1 µM

Q: How did the EC50 turn out when `CC1c2cc(Cl)ccc2C2CNCC12` (stereo not shown) [Example 5, 6-Chloro-8-methyl-1,2,3,3a,8,8a-hexahydroindeno[1,2-c]pyrrole] was run?
A: < 0.1 µM

Q: How did the EC50 turn out when `CC1c2cc(Cl)cc(Cl)c2C2CNCC12` (stereo not shown) [Example 28, 4,6-Dichloro-8-methyl-1,2,3,3a,8,8a-hexahydroindeno[1,2-c]pyrrole] was run?
A: < 0.1 µM

Q: How did the EC50 turn out when `CC1c2cc(Cl)c(Cl)cc2C2CNCC12` (stereo not shown) [Example 26, 5,6-Dichloro-8-methyl-1,2,3,3a,8,8a-hexahydroindeno[1,2-c]pyrrole] was run?
A: < 0.1 µM

Q: How did the EC50 turn out when `Clc1ccc2c(c1)CC1CNCC21` (stereo not shown) [Example 11, 6-Chloro-1,2,3,3a,8,8a-hexahydroindeno[1,2-c]pyrrole] was run?
A: < 0.1 µM

Q: Which EC50 does the source give for `COc1c(Cl)cc2c(c1Cl)C1CNCC1C2C` (stereo not shown) [Example 38, 4,6-Dichloro-5-Methoxy-8-methyl-1,2,3,3a,8,8a-hexahydroindeno[1,2-c]pyrrole] here?
A: < 0.1 µM

Q: Which EC50 does the source give for `CC1c2c(ccc(Cl)c2Cl)C2CNCC12` (stereo not shown) [Example 27, 6,7-Dichloro-8-methyl-1,2,3,3a,8,8a-hexahydroindeno[1,2-c]pyrrole] here?
A: < 0.1 µM

Q: Which EC50 does the source give for `Cc1cc2c(cc1Cl)C1CNCC1C2C` (single isomer, unassigned) [23, Enantiomer 1] here?
A: < 1 µM

Q: How did the EC50 turn out when `CC1c2ccc(F)cc2C2CNCC12` (stereo not shown) [Example 18, 5-Fluoro-8-methyl-1,2,3,3a,8,8a-hexahydroindeno[1,2-c]pyrrole] was run?
A: < 1 µM

Q: Which EC50 does the source give for `COc1cc2c(cc1OC)C1CNCC1C2C` (single isomer, unassigned) [36, Enantiomer 2] here?
A: < 1 µM

Q: For `Cc1cc2c(cc1Br)C(C)C1CNCC21` (stereo not shown) [Example 22, 5-Methyl-6-bromo-8-methyl-1,2,3,3a,8,8a-hexahydroindeno[1,2-c]pyrrole], which EC50 is on record?
A: < 1 µM

Q: How did the EC50 turn out when `COc1ccc2c(c1)C1CNCC1C2C` (single isomer, unassigned) [1, Enantiomer 2] was run?
A: < 1 µM

Q: With `CC1c2cc(Cl)c(OCc3ccc(F)cc3)cc2C2CNCC12` (stereo not shown) [Example 6, 5-(4-Fluorobenzyloxy)-6-chloro-8-methyl-1,2,3,3a,8,8a-hexahydroindeno[1,2-c]pyrrole] as the molecule, how does the EC50 read?
A: < 1 µM

Q: With `CC1c2ccc(Cl)c(Cl)c2C2CNCC12` (single isomer, unassigned) [41, Enantiomer 2] as the molecule, how does the EC50 read?
A: < 10 µM

Q: Which EC50 does the source give for `CC1c2c(ccc(Cl)c2F)C2CNCC12` (single isomer, unassigned) [42, Enantiomer 1] here?
A: < 10 µM

Q: With `COc1c(Cl)cc2c(c1OC)C1CNCC1C2C` (single isomer, unassigned) [35, Enantiomer 1] as the molecule, how does the EC50 read?
A: < 0.1 µM

Q: For `Cc1ccc2c(c1)C1CNCC1C2C` (stereo not shown) [Example 13, 5-Methyl-8-methyl-1,2,3,3a,8,8a-hexahydroindeno[1,2-c]pyrrole], which EC50 is on record?
A: < 1 µM

Q: Which EC50 does the source give for `CC1c2cc(F)ccc2C2CNCC12` (stereo not shown) [Example 19, 6-Fluoro-8-methyl-1,2,3,3a,8,8a-hexahydroindeno[1,2-c]pyrrole] here?
A: < 1 µM

Q: For `COc1ccc2c(c1Cl)C1CNCC1C2C` (single isomer, unassigned) [25, Enantiomer 2], which EC50 is on record?
A: < 1 µM

Q: For `COc1c(Cl)cc2c(c1Cl)C1CNCC1C2C` (single isomer, unassigned) [38, Enantiomer 2], which EC50 is on record?
A: < 0.1 µM

Q: With `COc1cc2c(cc1OC)C1CNCC1C2C` (single isomer, unassigned) [36, Enantiomer 1] as the molecule, how does the EC50 read?
A: > 10 µM

Q: `CCOc1cc2c(cc1Cl)C(C)C1CNCC21` (single isomer, unassigned) [29, Enantiomer 2] was tested. Which EC50 did it give?
A: < 0.1 µM

Q: For `Cc1cc2c(cc1Cl)C(C)C1CNCC21` (stereo not shown) [Example 21, 5-Methyl-6-chloro-8-methyl-1,2,3,3a,8,8a-hexahydroindeno[1,2-c]pyrrole], which EC50 is on record?
A: < 0.1 µM

Q: `CC1c2cc(Cl)c(OCC3CC3)cc2C2CNCC12` (stereo not shown) [Example 39, 5-Cyclopropylmethoxy-6-chloro-8-methyl-1,2,3,3a,8,8a-hexahydroindeno[1,2-c]pyrrole] was tested. Which EC50 did it give?
A: < 1 µM

Q: With `COc1cc2c(cc1C#N)C(C)C1CNCC21` (single isomer, unassigned) [33, Enantiomer 2] as the molecule, how does the EC50 read?
A: < 1 µM

Q: How did the EC50 turn out when `Cc1cc2c(cc1Cl)C(C)C1CNCC21` (single isomer, unassigned) [21, Enantiomer 1] was run?
A: < 1 µM

Q: How did the EC50 turn out when `CC1c2cccc(F)c2C2CNCC12` (stereo not shown) [Example 17, 4-Fluoro-8-methyl-1,2,3,3a,8,8a-hexahydroindeno[1,2-c]pyrrole] was run?
A: < 10 µM

Q: How did the EC50 turn out when `CC1c2ccc(O)cc2C2CNCC12` (single isomer, unassigned) [2, Enantiomer 1] was run?
A: < 1 µM

Q: For `Cc1cccc2c1C1CNCC1C2C` (stereo not shown) [Example 14, 4-Methyl-8-methyl-1,2,3,3a,8,8a-hexahydroindeno[1,2-c]pyrrole], which EC50 is on record?
A: < 1 µM

Q: For `CC1c2ccc(OCc3ccccc3F)cc2C2CNCC12` (single isomer, unassigned) [44, Enantiomer 2], which EC50 is on record?
A: < 10 µM

Q: How did the EC50 turn out when `Cc1cc2c(cc1Cl)C1CNCC1C2C` (stereo not shown) [Example 23, 5-Chloro-6-methyl-8-methyl-1,2,3,3a,8,8a-hexahydroindeno[1,2-c]pyrrole] was run?
A: < 1 µM

Q: `CC1c2c(ccc(Cl)c2F)C2CNCC12` (single isomer, unassigned) [42, Enantiomer 2] was tested. Which EC50 did it give?
A: < 0.1 µM

Q: With `COc1cc2c(cc1Cl)C(C)C1CNCC21` (stereo not shown) [Example 3, 5-Methoxy-6-chloro-8-methyl-1,2,3,3a,8,8a-hexahydroindeno[1,2-c]pyrrole] as the molecule, how does the EC50 read?
A: < 0.1 µM

Q: For `CC1c2ccc(O)cc2C2CNCC12` (stereo not shown) [Example 2, 5-Hydroxy-8-methyl-1,2,3,3a,8,8a-hexahydroindeno[1,2-c]pyrrole], which EC50 is on record?
A: < 0.1 µM

Q: For `CC1c2ccc(-c3c(F)cccc3F)cc2C2CNCC12` (single isomer, unassigned) [47, Enantiomer 2], which EC50 is on record?
A: > 10 µM

Q: With `COc1cc2c(cc1Cl)C(O)C1CNCC21` (stereo not shown) [Example 55, 5-Methoxy-6-chloro-2,3,3a,8a-tetrahydro-1H-2-aza-cyclopenta[a]inden-8-ol] as the molecule, how does the EC50 read?
A: < 10 µM

Q: With `CC1c2cc(Br)c(O)cc2C2CNCC12` (single isomer, unassigned) [31, Enantiomer 2] as the molecule, how does the EC50 read?
A: < 0.1 µM

Q: `CC1c2c(ccc(Cl)c2Cl)C2CNCC12` (single isomer, unassigned) [27, Enantiomer 2] was tested. Which EC50 did it give?
A: < 0.1 µM

Q: For `CC1c2ccc(OCc3ccc(F)cc3)cc2C2CNCC12` (single isomer, unassigned) [46, Enantiomer 2], which EC50 is on record?
A: < 10 µM

Q: Which EC50 does the source give for `CC1c2ccc(Cl)c(Cl)c2C2CNCC12` (single isomer, unassigned) [41, Enantiomer 1] here?
A: < 1 µM

Q: With `CCC1c2ccc(OC)cc2C2CNCC12` (stereo not shown) [Example 48, 5-Methoxy-8-ethyl-1,2,3,3a,8,8a-hexahydroindeno[1,2-c]pyrrole] as the molecule, how does the EC50 read?
A: > 10 µM
